From patent US20140349955A1, “USE OF FLUORINE-CONTAINING WATER SOLUBLE PLATINUM COMPLEX IN PREPARING DRUGS FOR PREVENTION AND TREATMENT OF CANCERS” (GUDUI BIOPHARMA TECHNOLOGY INC., priority 2011, published 2014)

What was measured:
[1] = tested on: A549; assay: MTS cytotoxicity test, A549; format: cell-based; details: 96 h, read-out: IC50 value in human tumor cells
Method: (§1) Containing 10% bovine fetal serum, 1 mM of sodium pyruvate, 2 mM of L-glutamine, 50 U/mL of penicillin, 50 μg/mL of streptomycin
(§2) Human tumor cells: dul45-human prostate cancer; MCF-7-human breast cancer; SK0V3-human ovarian carcinoma, HT-29-human colon cancer; A549-human non-small cell lung cancer (adenocarcinoma), H460-human non-small cell lung cancer (large cell carcinoma), and animal tumor cells: L1210-mice leukemia cells used in the following activity test experiments were all purchased from Shanghai An Yan Commercial Trade Co., Ltd.
(§3) MTS test method was used in cytotoxicity assay. The tumor cells of logarithmic phase were collected, and then the concentration of cell suspension was adjusted, 100 μL of the cell suspension was added to each well, the cells were placed at 1000-10000 cells/well (edge well filled with sterile PBS). Cells were incubated at 37° C. with 5% CO2 to make cell monolayer overspread the bottom of each well (96-well flat-bottomed microplate). 100 μL of different concentrations of the test compounds was added to each well. Each condition was measured in five replicates. The microplate was incubated at 37° C. with 5% CO2 for 96 h and checked with inverted microscope. MTS working reagent: To 2 mL of MTS (2 mg/mL, prepared by DPBS) was added 100 μL of PMS (1 mg/mL, prepared by DPBS). The cell culture medium was discarded after centrifugation, the cell culture plate was carefully washed 2-3 times with PBS. Before detecting the absorbance value (OD), to each sample containing well was added 100 μL of cell culture medium, then 20 μL of MTS working reagent was added. After incubation at 37° C. with 5% CO2 for 2 h, the OD (optical density) value was detected at 490 nm.
(§4) Control group: the conditions are the same as the above without adding the active ingredient of antitumor agents, and the OD value was detected at 490 nm on the end of the experiment.
(§5) The cell inhibiting rate of the drugs to tumor cell growth was calculated according to the following formula:
(§6) 1) Cell viability (%)=OD of treated group/OD of control group×100%
(§7) 2) The cell viabilities under the different drug concentrations were determined, and then plotted against drug concentration. The IC50 value is the corresponding concentration in the obtained curve when the cell viability was 50%.

[2] = tested on: SKOV3; assay: MTS cytotoxicity test, SKOV3; format: cell-based; details: 96 h, read-out: IC50 value in human tumor cells
Method: as §1, §2, §3, §4, §5, §6, §7

[3] = tested on: MCF7; assay: MTS cytotoxicity test, MCF7; format: cell-based; details: 96 h, read-out: IC50 value in human tumor cells
Method: as §1, §2, §3, §4, §5, §6, §7

[4] = tested on: HT29; assay: MTS cytotoxicity test, HT29; format: cell-based; details: 96 h, read-out: IC50 value in human tumor cells
Method: as §1, §2, §3, §4, §5, §6, §7

[5] = tested on: DU145; assay: MTS cytotoxicity test, DU145; format: cell-based; details: 96 h, read-out: IC50 value in human tumor cells
Method: as §1, §2, §3, §4, §5, §6, §7

[6] = tested on: H460; assay: MTS cytotoxicity test, H460; format: cell-based; details: 96 h, read-out: IC50 value in human tumor cells
Method: as §1, §2, §3, §4, §5, §6, §7

[7] = tested on: L1210 tumor cells; assay: Antitumor efficacy in L1210 tumor-bearing CDF1 mice (increase in life span); format: in vivo
Method: In the following test, antitumor efficacy studies were performed using 8-9 weeks old female CDF1 mice, the average weight of the animal is 20-25 grams. L1210 tumor cells (about 10^5 cells per mouse) were inoculated intraperitoneally. The fluorine-containing water-soluble platinum complexes were used to treat the tumor-bearing animals and the efficacy was compared compared with the clinical platinum antitumor drugs. […] Drugs were administered intraperitoneally on day 1 and day 4 after tumor cell transplantation. The number of experimental animals in each group was 6.
The experimental animals were purchased from Vital River Laboratory Animal Technology Co. Ltd., Tumor cells L1210-leukemia cells were purchased from Shanghai An Yan Commercial Trade Co. Ltd.
The increase in life span (ILS) is calculated as follows:
Wherein, St=the weighted median survival time of treated animals; Su=the weighted median survival time of untreated animals

[8] = tested on: A549; assay: Synergistic cytotoxicity test (MTS), A549; format: cell-based, human; details: 96 h
Method: (§8) Containing 10% bovine fetal serum, 1 mM of sodium pyruvate, 2 mM of L-glutamine, 50 U/mL of penicillin, 50 μg/ mL of streptomycin.
as §2, with “du145-human” for “dul45-human”
as §3, with “certain concentration solution of a mixture” for “different concentrations”, “fluorine-containing water-soluble platinum complex with other antitumor agents” for “test compounds”
(§9) Each of above experiment was repeated five times, and the cell viability was calculated according to the mean OD values.
(§10) Cell Viability (%)=(treated group OD value/control group OD value)×100
(§11) Control group: the conditions are the same as the above without adding the tested drug mixture (100 μL of culture medium was added in stead), and finally the absorbance was measured at 490 nm to obtain the OD value of the tumor cells.
(§12) Drug Group-1: only the fluorine-containing water-soluble platinum complex was added under the above conditions to obtain cell viability of tumor cells.
(§13) Drug Group-2: only the other chemotherapeutic drug (active ingredient) was added under the above conditions to obtain cell viability of tumor cells.
(§14) Drug Combination Group: the fluorine-containing water-soluble platinum complex and other chemotherapeutic drugs were added simultaneously under the above conditions to obtain cell viability of tumor cell. (2) Evaluation Method:
(§15) When the fluorine-containing water-soluble platinum complexes used in combination with other chemotherapy drugs, the inhibition effect on cancer cell proliferation is enhanced or synergistic, and the effect was calculated using the following formula:
(§16) Combination Effect (%)={[(A1-X)+(A2-X)]/(A1-A2)|}×100
(§17) wherein, A1 is the cell viability of drug group-1, A2 is the cell viability of drug group-2, X is the cell viability of drug combination group, (A1-A2)| is the absolute value of the cell viability difference between the two groups.
(§18) Calculated according to the above formula, when the results of [Combination Effect (%)]>+100%, that means the effect of inhibition on cell proliferation is enhanced or synergistic (3) Experimental Result: […]

[9] = tested on: SK0V3; assay: Synergistic cytotoxicity test (MTS), SKOV3; format: cell-based, human; details: 96 h
Method: as §8
as §2, with “du145-human” for “dul45-human”
as §3, with “certain concentration solution of a mixture” for “different concentrations”, “fluorine-containing water-soluble platinum complex with other antitumor agents” for “test compounds”
as §9, §10, §11, §12, §13, §14, §15, §16, §17, §18

[10] = tested on: MCF7; assay: Synergistic cytotoxicity test (MTS), MCF7; format: cell-based, human; details: 96 h
Method: as §8
as §2, with “du145-human” for “dul45-human”
as §3, with “certain concentration solution of a mixture” for “different concentrations”, “fluorine-containing water-soluble platinum complex with other antitumor agents” for “test compounds”
as §9, §10, §11, §12, §13, §14, §15, §16, §17, §18

[11] = tested on: HT29; assay: Synergistic cytotoxicity test (MTS), HT29; format: cell-based, human; details: 96 h
Method: as §8
as §2, with “du145-human” for “dul45-human”
as §3, with “certain concentration solution of a mixture” for “different concentrations”, “fluorine-containing water-soluble platinum complex with other antitumor agents” for “test compounds”
as §9, §10, §11, §12, §13, §14, §15, §16, §17, §18

[12] = tested on: DU145; assay: Synergistic cytotoxicity test (MTS), DU145; format: cell-based, human; details: 96 h
Method: as §8
as §2, with “du145-human” for “dul45-human”
as §3, with “certain concentration solution of a mixture” for “different concentrations”, “fluorine-containing water-soluble platinum complex with other antitumor agents” for “test compounds”
as §9, §10, §11, §12, §13, §14, §15, §16, §17, §18

[13] = tested on: H460; assay: Synergistic cytotoxicity test (MTS), H460; format: cell-based, human; details: 96 h
Method: as §8
as §2, with “du145-human” for “dul45-human”
as §3, with “certain concentration solution of a mixture” for “different concentrations”, “fluorine-containing water-soluble platinum complex with other antitumor agents” for “test compounds”
as §9, §10, §11, §12, §13, §14, §15, §16, §17, §18

[14] = 50 mg/Kg i.p. on day 1 and day 4
[15] = 100 mg/Kg i.p. on day 1 and day 4
[16] = 200 mg/Kg i.p. on day 1 and day 4
[17] = other chemotherapy drug (at its listed dosage) combined with Complex 2 (dosage: 1 μM)
[18] = other chemotherapy drug (at its listed dosage) combined with Complex 3 (dosage: 1 μM)
[19] = other chemotherapy drug (at its listed dosage) combined with Complex 5 (dosage: 1 μM)
[20] = other chemotherapy drug (at its listed dosage) combined with Complex 6 (dosage: 1 μM)

Row | Compound | IC50 [1] [µM] | IC50 [2] [µM] | IC50 [3] [µM] | IC50 [4] [µM] | IC50 [5] [µM] | IC50 [6] [µM] | other results
1 | O=C1[O][Pt]2([NH][C@@H]3CCCC[C@H]3[NH]2)[O]C(=O)C1(F)CCOC1O[C@H](CO)[C@@H](O)[C@H](O)[C@H]1O (stereo partly drawn) [Complex 2, cis-[trans-(1R, 2R)-diaminocyclohexane] Pt (II) (1—O—D-glucoside-propane-3-fluoro-3,3-dicarb oxylate)] | 0.675 | 10 | 0.656 | 1.55 | 4.85 | 9.87 | –
2 | O=C1[O][Pt]2([NH][C@@H]3CCCC[C@H]3[NH]2)[O]C(=O)C1(F)CCCOC1O[C@H](CO)[C@@H](O)[C@H](O)[C@H]1O (some centres unmarked) [Complex 3] | 0.855 | 10.1 | 0.923 | 2.01 | 6.6 | 10.1 | –
3 | O=C1[O][Pt]2([NH]C3CCCCC3[NH]2)[O]C(=O)C1(F)CCOC1OC(CO)C(O)C(O)C1O (centres unmarked) [Complex 5] | 0.653 | 2.22 | 0.411 | 2.16 | 2.6 | 10.2 | –
4 | O=C1[O][Pt]2([NH]C3CCCCC3[NH]2)[O]C(=O)C1(F)CCCOC1OC(CO)C(O)C(O)C1O (centres unmarked) [Complex 6] | 21.8 | 22.2 | 2.04 | 2.3 | 9.96 | 22.4 | –
5 | O=C1[O][Pt]2([NH]C3CCCCC3[NH]2)[O]C(=O)C1(F)CCOC1OC(CO)C(O)C(O)C1O (centres unmarked) [Complex 8] | 5.12 | 49.4 | 5.1 | 1.07 | 5.11 | 10 | –
6 | O=C1[O][Pt]2([NH]C3CCCCC3[NH]2)[O]C(=O)C1(F)CCCOC1OC(CO)C(O)C(O)C1O (centres unmarked) [Complex 9] | 10.2 | 21.3 | 6.71 | 1.2 | 7.04 | 21.4 | ILS (%) [7, 14]: >400%; Survived Animals on Day 42 [7, 14]: 6/6; Weight Changes (g) ([7]; 50 mg/Kg i.p. on day 1 and day 4, weight changes from the first day to the seventh day): +1.5 g; ILS (%) [7, 15]: >400%; Survived Animals on Day 42 [7, 15]: 6/6; Weight Changes (g) ([7]; 100 mg/Kg i.p. on day 1 and day 4, weight changes from the first day to the seventh day): +0.1 g; ILS (%) [7, 16]: >400%; Survived Animals on Day 42 [7, 16]: 6/6; Weight Changes ([7]; 200 mg/Kg i.p. on day 1 and day 4, weight changes from the first day to the seventh day): -0.5 g
7 | N.N.[Cl][Pt+2][Cl] [Transplatin] | – | – | – | – | – | – | the effect of drug combination (Combination Effect) [8, 17]: ⊚ (⊚ represents the effect of drug combination > 300%); the effect of drug combination (Combination Effect) [8, 18]: ⊚ (⊚ represents the effect of drug combination > 300%); the effect of drug combination (Combination Effect) ([9]; other chemotherapy drug (at its listed dosage) combined with Complex 2 (dosage: 1 μM), SLOV3): ○ (○ represents: 100% < the effect of drug combination < 300%); the effect of drug combination (Combination Effect) ([9]; other chemotherapy drug (at its listed dosage) combined with Complex 3 (dosage: 1 μM), SlOV3): ○ (○ represents: 100% < the effect of drug combination < 300%); the effect of drug combination (Combination Effect) ([9]; other chemotherapy drug (at its listed dosage) combined with Complex 5 (dosage: 1 μM), SLOV3): ○ (○ represents: 100% < the effect of drug combination < 300%); the effect of drug combination (Combination Effect) ([9]; other chemotherapy drug (at its listed dosage) combined with Complex 6 (dosage: 1 μM), SLOV3): ○ (○ represents: 100% < the effect of drug combination < 300%); the effect of drug combination (Combination Effect) [10, 17]: ⊚ (⊚ represents the effect of drug combination > 300%); the effect of drug combination (Combination Effect) [10, 18]: ⊚ (⊚ represents the effect of drug combination > 300%); the effect of drug combination (Combination Effect) [10, 19]: ⊚ (⊚ represents the effect of drug combination > 300%); the effect of drug combination (Combination Effect) [10, 20]: ⊚ (⊚ represents the effect of drug combination > 300%); the effect of drug combination (Combination Effect) [11, 17]: ⊚ (⊚ represents the effect of drug combination > 300%); the effect of drug combination (Combination Effect) [11, 18]: ⊚ (⊚ represents the effect of drug combination > 300%); the effect of drug combination (Combination Effect) [11, 19]: ⊚ (⊚ represents the effect of drug combination > 300%); the effect of drug combination (Combination Effect) [11, 20]: ⊚ (⊚ represents the effect of drug combination > 300%); the effect of drug combination (Combination Effect) [12, 17]: ○ (○ represents: 100% < the effect of drug combination < 300%); the effect of drug combination (Combination Effect) [12, 18]: ○ (○ represents: 100% < the effect of drug combination < 300%); the effect of drug combination (Combination Effect) [12, 19]: ○ (○ represents: 100% < the effect of drug combination < 300%); the effect of drug combination (Combination Effect) [12, 20]: ○ (○ represents: 100% < the effect of drug combination < 300%); the effect of drug combination (Combination Effect) [13, 19]: ⊚ (⊚ represents the effect of drug combination > 300%); the effect of drug combination (Combination Effect) [13, 20]: ⊚ (⊚ represents the effect of drug combination > 300%)
